Results as given in patent US20250134800A1, “Biomass Extract For Skin Applications” (EMBION TECHNOLOGIES SA, priority 2022, published 2025).

Experiments:
[1] = test system: S. aureus; assay: Inhibitory study on colonized Reconstructed Human Epidermis (RHE), viable count; format: cell-based, Staphylococcus aureus
Text: The principal aim of the present study was to evaluate the potential efficacy of BSG-derived preparations on a more biologically relevant in vitro preclinical model based on colonized Reconstructed Human Epidermis (RHE). The main focus was given to: • I. to counteract Staphylococcus aureus adhesion and its proliferative capacity. The rationale was based on the possibility of the ingredients to balance the inflammatory reaction induced by the bacterium, reducing its adhesion and growth on RHE model (inhibitory study); • II. the prebiotic effect of the 3 preparations versus Staphylococcus epidermidis (prebiotic study). The rationale was based on the possibility of the ingredients to protect and biostimulant the normal skin microbiota; • III. their biological impact on sterile RHE model. The rationale was based on the possibility that the ingredients to enhance or balance the innate immune response.
For this study the following BSG-derived preparations were used: • for inhibitory and ingredient impact effects: P1 at 1%, P3 at 2% and P4 at 4%; • for prebiotic effect: […] at 1%, P3 at 2% and P5 at 1%.
SkinEthic^@ Reconstituted Human Epidermis 0.5 cm^2 is a reconstructed epidermis of normal human keratinocytes. Cells are grown on inert polycarbonate filters in chemically defined medium, for 17 days. The model reproduces epidermal morphology and it has been fully characterized. The good barrier function, batch reproducibility and low variability in terms of permeability for probe molecules have been described in Literature compared to human ex-vivo models. The RHE batch was tested for the absence of HIV1 and 2 antibodies, hepatitis C antibodies and hepatitis B antigen HBs. On cells from the donors, was verified the absence of bacteria, fungus and mycoplasma. The maintenance medium was tested for sterility.
Two days before the test, bacterial strains (S. aureus and S. epidermidis) were daily inoculated onto culture medium (BHI agar plate) and incubated at 37° C. in aerobic conditions for at least 24 h in order to obtain a fresh culture. The day of the colonization, bacterial strains have been resuspended in sterile saline solution at the required concentration range. Each starting bacterial inoculum concentration was checked by spectrophotometric OD measure and adjusted to obtain a range of about 10^7-10^8 UFC/mL (OD=0.1); it was then diluted 10-fold to obtain a final range concentration of 10^3-10^4 UFC/tissue for the inhibitory study and 10^4-10^5 UFC/tissue for prebiotic study. The starting inoculum level was also confirmed by serial decimal dilutions and viable counts on agar plates (BHI).
For both inhibitory and prebiotic RHE were pre-treated twice (overnight and 1 h before colonization respectively with 50 uL and 30 uL) on the apical part (directly spread on tissue surface) and left incubated at 37° C. (with CO2 5%) up to the colonization. Pre-treated RHE dedicated to inhibitory and prebiotic studies were colonized with 30 μL of the bacterial suspension previously obtained (respectively with S. aureus for inhibitory study and S. epidermidis for prebiotic study) and incubated at 37° C. (with CO2 5%) up to the required time point (24 h). RHE sterile were not colonized pre-treated twice (overnight and 1 h before colonization respectively with 50 uL and 30 uL) on the apical part (directly spread on tissue surface) and left incubated at 37° C. (with CO2 5%) up to the required time point (24 h). […]

[2] = test system: Staphylococcus epidermidis ATCC 12228; assay: Microdilution assay in liquid broth, viable count on agar plates; format: cell-based; settings: positive controls at 4%, up to 24 h
Experimental: (§1) A microbiological screening study on liquid broth was performed to assess the activity (bacterial growth) of 5 preparations (P1, P2, P3, P4 and P5) on two Staphylococcus species: (1) Staphylococcus aureus (MRSA) ATCC 33591 as potential skin pathogen and (2) Staphylococcus epidermidis ATCC 12228 as commensal strain in healthy skin. With the aim to assess a potential and strain specific antimicrobial or prebiotic activity vs Staphylococcus spp and to validate the hypothesis that the ingredients may have a prebiotic effect (on S. epidermidis) and meanwhile negatively impacting the viability or growth rate (on S. aureus), the experimental results are presented below.
(§2) To assess a potential and strain specific antimicrobial or prebiotic activity vs Staphylococcus spp.: a microdilution assay (viable count on agar plates) in liquid broth was performed using 3 different concentrations, 4%-2%-1% for each ingredient, compared to inulin and glucose as carbon source and prebiotic reference. […]
(§3) The growth rate checked by viable count (CFU/mL) was performed to quantify the number of residual viable cells present in the test cultures and they were then expressed as Log values.

[3] = test system: Staphylococcus aureus (MRSA) ATCC 33591; assay: as above; format: cell-based; settings: positive controls at 4%, up to 24 h
Experimental: as §1, §2, §3

[4] = RHE model after 2 days, vs colonized control, P1 1%, P3 2%, P4 4%, Chlorexidine 1%
[5] = RHE model after 2 days, P1 1%, P3 2%, P4 4%, Chlorexidine 1%

How did the “bacterial growth on RHE compared to the colonized control” value ([1]; P3 at 2%, P4 at 4%, REF Chlorexidine 1%) turn out when `N=C(NCCCCCCNC(=N)NC(=N)Nc1ccc(Cl)cc1)NC(=N)Nc1ccc(Cl)cc1` [REF, Chlorexidine] was run?
The value was “no bacterial growth”.

And the “Apical fraction Log reductions” value [1, 4]?
Its value is >3.26 Log.

And the “Homogenate fraction Log reductions” value [1, 4]?
The value was >3.00 Log.

And the “Apical fraction Log (Mean) viable count” value [1, 5]?
Its value is <2.00 Log.

What about the “Homogenate fraction Log (Mean) viable count” value [1, 5] of the same molecule?
Its value is <2.00 Log.

Which results are given for Inulin?
growth compared with inoculum count [2]: growth similar to the inoculum count; growth compared with inoculum count [3]: growth similar to the inoculum count
